# How the values were obtained:
# Format in all cases: biochemical
# AmcH [1] = target: T1, AmcH (Streptomyces novoguineensis, UniProt A0A4Y5QVH7); test: HPLC of ATP consumption and AMP formation; settings: 500 uM AmcB, 1 uM AmcH, 1 mM 2-OG, 2 mM ATP, 25 mM MgCl2, pH 8.0, 30 °C
# T1 construct: AmcH purified from Streptomyces albus G153; AmcB (holo form, with phosphopantetheine arm) from E. coli BL21(DE3), pET26b(+), is the acyl acceptor; with Acyl carrier protein AmcB
# T1 sequence (A0A4Y5QVH7 1-460): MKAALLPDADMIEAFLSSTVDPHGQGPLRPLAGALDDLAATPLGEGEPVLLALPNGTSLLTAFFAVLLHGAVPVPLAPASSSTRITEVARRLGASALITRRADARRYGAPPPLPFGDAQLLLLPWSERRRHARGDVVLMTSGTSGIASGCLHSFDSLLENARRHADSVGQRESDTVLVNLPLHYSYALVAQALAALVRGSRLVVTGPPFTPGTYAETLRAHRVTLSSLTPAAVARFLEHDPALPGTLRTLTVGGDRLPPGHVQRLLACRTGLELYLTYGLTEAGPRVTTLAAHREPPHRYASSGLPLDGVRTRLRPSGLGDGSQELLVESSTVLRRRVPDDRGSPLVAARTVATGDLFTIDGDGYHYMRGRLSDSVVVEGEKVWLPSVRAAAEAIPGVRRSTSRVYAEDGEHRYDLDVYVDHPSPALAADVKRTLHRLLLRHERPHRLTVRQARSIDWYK
# AmcH [2] = target: T1, AmcH; test: LC-ESI-HRMS of acyl-AmcB; settings: 200 uM AmcB, 0.2 uM AmcH, 1 mM 2-OG, 5 mM ATP, 25 mM MgCl2, 50 mM Tris-HCl pH 8.0, 30 °C, 1 h
# eFabI = target: T2, eFabI (Escherichia coli, UniProt P0AEK4); test: PPant ejection assay / LC-HRMS of 4-AmcB formation; settings: 1 mM NADH, 200 uM gel-filtered 3-AmcB, 8 uM enzyme, 20 mM Tris-HCl pH 8.0, 150 mM NaCl, 30 °C, 1 h
# T2 construct: gene fabI; C-terminal His tag, pET26b(+), E. coli BL21(DE3)
# T2 sequence (P0AEK4 2-262): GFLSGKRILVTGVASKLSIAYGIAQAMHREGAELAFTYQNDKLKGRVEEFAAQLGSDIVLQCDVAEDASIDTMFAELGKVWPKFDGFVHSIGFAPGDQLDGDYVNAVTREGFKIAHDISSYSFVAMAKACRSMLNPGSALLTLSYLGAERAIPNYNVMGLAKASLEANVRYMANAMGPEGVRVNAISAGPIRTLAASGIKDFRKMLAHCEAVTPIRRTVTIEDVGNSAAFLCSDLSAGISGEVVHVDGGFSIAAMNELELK
# sFabI = target: T3, sFabI (Streptomyces albidoflavus, UniProt D6BBL6); test: PPant ejection assay / LC-HRMS of 4-AmcB formation; settings: 1 mM NADH, 200 uM gel-filtered 3-AmcB, 8 uM enzyme, 20 mM Tris-HCl pH 8.0, 150 mM NaCl, 30 °C, 1 h
# T3 construct: gene fabI; C-terminal His tag, pET26b(+), E. coli BL21(DE3)
# T3 sequence (D6BBL6 1-259): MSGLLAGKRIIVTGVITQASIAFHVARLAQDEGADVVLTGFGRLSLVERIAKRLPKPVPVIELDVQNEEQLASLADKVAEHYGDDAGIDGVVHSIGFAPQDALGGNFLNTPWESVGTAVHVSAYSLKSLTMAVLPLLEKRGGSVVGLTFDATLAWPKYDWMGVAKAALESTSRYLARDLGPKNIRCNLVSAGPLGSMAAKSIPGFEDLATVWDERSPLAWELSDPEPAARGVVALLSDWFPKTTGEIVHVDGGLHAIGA
smiles,measurement,setting,value
Nc1ncnc2c1ncn2[C@@H]1O[C@H](COP(=O)(O)OP(=O)(O)OP(=O)(O)O)[C@@H](O)[C@H]1O [ATP],HPLC of ATP consumption and AMP formation,AmcH [1],consumption of ATP and the generation of AMP occurred in both AmcB- and 2-OG-dependent manners
O=C(O)CCC(=O)C(=O)O [2-OG],LC-ESI-HRMS of acyl-AmcB,AmcH [2],AmcH loads only 2-OG onto AmcB to form 2-oxoglutaryl-AmcB
NC(=O)C1=CN([C@@H]2O[C@H](COP(=O)(O)OP(=O)(O)OC[C@H]3O[C@@H](n4cnc5c(N)ncnc54)[C@H](O)[C@@H]3O)[C@@H](O)[C@H]2O)C=CC1 [NADH],PPant ejection assay / LC-HRMS of 4-AmcB formation,eFabI,eFabI and sFabI specifically catalyze the reduction of 3-AmcB to yield 4-AmcB
same,PPant ejection assay / LC-HRMS of 4-AmcB formation,sFabI,eFabI and sFabI specifically catalyze the reduction of 3-AmcB to yield 4-AmcB

# Source: paper PMC10698177, “Discovery of type II polyketide synthase-like enzymes for the biosynthesis of cispentacin” (Nature Communications, 2023)
